Patent publication US20240423207A1, “PICOLINAMIDE COMPOUNDS WITH FUNGICIDAL ACTIVITY” (CORTEVA AGRISCIENCE LLC, priority 2014, published 2024)
Like-named read-outs stand apart in the source and are kept apart here.

Columns and labels:
[1] = system: Mycosphaerella graminicola; Anamorph: Septoria tritici; experiment: Leaf Blotch of Wheat (SEPTTR) fungicidal activity on wheat seedlings; type: in vivo; conditions: Zymoseptoria tritici; for pest or weed control at 121.5 g/ha: Low Volume, 121.5 g/H; for pest or weed control at 100 ppm: High Volume
Protocol: Example A: Evaluation of Fungicidal Activity: Leaf Blotch of Wheat (Mycosphaerella graminicola; Anamorph: Septoria tritici; Bayer code […]): Technical grades of materials were dissolved in acetone, which were then mixed with nine volumes of water (H2O) containing 110 ppm Triton X-100. The fungicide solutions were applied onto wheat seedlings using an automated booth sprayer to run-off. All sprayed plants were allowed to air dry prior to further handling. All fungicides were evaluated using the aforementioned method for their activity vs. all target diseases, unless stated otherwise. Wheat leaf blotch and brown rust activity were also evaluated using track spray applications, in which case the fungicides were formulated as EC formulations, containing 0.1% Trycol 5941 in the spray solutions. Wheat plants (variety Yuma) were grown from seed in a greenhouse in 50% mineral soil/50% soil-less Metro mix until the first leaf was fully emerged, with 7-10 seedlings per pot. These plants were inoculated with an aqueous spore suspension of Septoria tritici either prior to or after fungicide treatments. After inoculation the plants were kept in 100% relative humidity (one day in a dark dew chamber followed by two to three days in a lighted dew chamber at 20° C.) to permit spores to germinate and infect the leaf. The plants were then transferred to a greenhouse set at 20° C. for disease to develop. When disease symptoms were fully expressed on the 1st leaves of untreated plants, infection levels were assessed on a scale of 0 to 100 percent disease severity. Percent disease control was calculated using the ratio of disease severity on treated plants relative to untreated plants.

[2] = system: Puccinia triticina; Synonym: Puccinia recondita f sp. tritici; experiment: Wheat Brown Rust (PUCCRT) fungicidal activity on wheat seedlings; type: in vivo; conditions: for pest or weed control at 121.5 g/ha: Low Volume, 121.5 g/H; for pest or weed control at 100 ppm: High Volume
Protocol: Technical grades of materials were dissolved in acetone, which were then mixed with nine volumes of water (H2O) containing 110 ppm Triton X-100. The fungicide solutions were applied onto wheat seedlings using an automated booth sprayer to run-off. All sprayed plants were allowed to air dry prior to further handling. All fungicides were evaluated using the aforementioned method for their activity vs. all target diseases, unless stated otherwise. Wheat leaf blotch and brown rust activity were also evaluated using track spray applications, in which case the fungicides were formulated as EC formulations, containing 0.1% Trycol 5941 in the spray solutions. Wheat plants (variety Yuma) were grown from seed in a greenhouse in 50% mineral soil/50% soil-less Metro mix until the first leaf was fully emerged, with 7-10 seedlings per pot. These plants were inoculated with an aqueous spore suspension of Septoria tritici either prior to or after fungicide treatments. After inoculation the plants were kept in 100% relative humidity (one day in a dark dew chamber followed by two to three days in a lighted dew chamber at 20° C.) to permit spores to germinate and infect the leaf. The plants were then transferred to a greenhouse set at 20° C. for disease to develop. When disease symptoms were fully expressed on the 1st leaves of untreated plants, infection levels were assessed on a scale of 0 to 100 percent disease severity. Percent disease control was calculated using the ratio of disease severity on treated plants relative to untreated plants. Example B: Evaluation of Fungicidal Activity: Wheat Brown Rust (Puccinia triticina; Synonym: Puccinia recondita f sp. tritici; Bayer code PUCCRT): Wheat plants (variety Yuma) were grown from seed in a greenhouse in 50% mineral soil/50% soil-less Metro mix until the first leaf was fully emerged, with 7-10 seedlings per pot. These plants were inoculated with an aqueous spore suspension of Puccinia triticina either prior to or after fungicide treatments. After inoculation the plants were kept in a dark dew room at 22° C. with 100% relative humidity overnight to permit spores to germinate and infect the leaf. The plants were then transferred to a greenhouse set at 24° C. for disease to develop. Fungicide formulation, application and disease assessment followed the procedures as described in the Example A.

[3] = 24 h, 1 Day Protectant, read-out: SEPTTR 1DP disease control
[4] = 72 h, 3 Day Curative, read-out: SEPTTR 3DC disease control
[5] = 24 h, 1 Day Protectant, read-out: PUCCRT 1DP disease control
[6] = 72 h, 3 Day Curative, read-out: PUCCRT 3DC disease control

Structure (SMILES)	pest or weed control at 121.5 g/ha [1, 3]	pest or weed control at 121.5 g/ha [1, 4]	pest or weed control at 121.5 g/ha [2, 5]	pest or weed control at 121.5 g/ha [2, 6]	pest or weed control at 100 ppm [1, 3]	pest or weed control at 100 ppm [1, 4]	pest or weed control at 100 ppm [2, 5]	pest or weed control at 100 ppm [2, 6]
COc1ccnc(C(=O)N[C@@H](C)C(=O)O[C@@H](C)C(c2ccc(Br)cc2)c2ccc(Br)cc2)c1OC(C)=O [Cmpd 165]	> 80%	> 80%	> 80%	< 80%	–	–	–	–
COc1ccnc(C(=O)N[C@@H](C)C(=O)O[C@@H](C)C(c2ccc(F)c(F)c2)c2ccc(F)c(F)c2)c1OC(C)=O [Cmpd 215]	> 80%	> 80%	> 80%	–	–	–	–	–
COc1ccnc(C(=O)N[C@@H](C)C(=O)O[C@@H](C)C(c2ccc(C)s2)c2ccc(C)s2)c1OCOC(C)=O [Cmpd 170]	< 80%	< 80%	< 80%	< 80%	–	–	–	–
COc1ccnc(C(=O)N[C@@H](C)C(=O)O[C@@H](C)C(c2ccc(F)cc2)c2ccc(F)cc2)c1OC(=O)C(C)C [Cmpd 208]	> 80%	> 80%	> 80%	< 80%	–	–	–	–
COc1cccc(C(c2cccc(OC)c2)[C@H](C)OC(=O)[C@H](C)NC(=O)c2nccc(OC)c2O)c1 [Cmpd 118]	–	–	–	–	< 80%	> 80%	> 80%	> 80%
CC[C@H](NC(=O)c1nccc(OC)c1OCOC(C)=O)C(=O)O[C@@H](C)C(c1ccc(F)cc1)c1ccc(F)cc1 [Cmpd 184]	> 80%	> 80%	> 80%	> 80%	–	–	–	–
COc1ccnc(C(=O)N[C@@H](C)C(=O)O[C@@H](C)C(c2ccc(F)c(Cl)c2)c2ccc(F)c(Cl)c2)c1OC(C)=O [Cmpd 216]	> 80%	< 80%	> 80%	< 80%	–	–	–	–
COc1ccnc(C(=O)N[C@@H](C)C(=O)OC(C)C2c3ccccc3Oc3ccccc32)c1O (stereo partly shown) [Cmpd 102]	–	–	–	–	< 80%	< 80%	< 80%	–
COc1ccnc(C(=O)N[C@H](C(=O)O[C@@H](C)C(c2ccc(F)cc2)c2ccc(F)cc2)C(C)C)c1O [Cmpd 115]	–	–	–	–	> 80%	> 80%	< 80%	–
COc1ccccc1C(c1ccccc1OC)[C@H](C)OC(=O)[C@H](C)NC(=O)c1nccc(OC)c1O [Cmpd 117]	–	–	–	–	> 80%	> 80%	> 80%	< 80%
COc1ccnc(C(=O)N[C@@H](C)C(=O)O[C@@H](C)C(c2ccc(C)s2)c2ccc(C)s2)c1O [Cmpd 104]	–	–	–	–	< 80%	> 80%	> 80%	–
CC[C@H](NC(=O)c1nccc(OC)c1O)C(=O)O[C@@H](C)C(c1ccc(F)cc1)c1ccc(F)cc1 [Cmpd 114]	–	–	–	–	> 80%	> 80%	> 80%	> 80%
COc1ccnc(C(=O)N[C@@H](C)C(=O)O[C@@H](C)C(c2ccc(C)cc2)c2ccc(C)cc2)c1OC(=O)C(C)C [Cmpd 168]	> 80%	> 80%	> 80%	< 80%	–	–	–	–
COc1ccnc(C(=O)N[C@@H](C)C(=O)O[C@@H](C)C(c2ccc(F)c(F)c2)c2ccc(F)c(F)c2)c1OCOC(C)=O [Cmpd 218]	> 80%	> 80%	> 80%	< 80%	–	–	–	–
